According to ChEMBL document CHEMBL1201862, “PubChem BioAssay data set” (2004):
Activity calls are given as the source filed them.

Key:
[1] = viability loss in THP-1 monocytes – THP-1 cells, cytotoxicity control for Vif-APOBEC3G degradation inhibitor project, dose response (AID 1117359); type: functional; details: THP-1
[2] = biological target: T1, Carboxy-terminal domain RNA polymerase II polypeptide A small phosphatase 1 (Homo sapiens, UniProt Q9GZU7); assay: CTDSP1 inhibitors, concentration-response, biochemical, absorbance readout, ultra-high-throughput screen actives (AID 540297); type: functional
T1 sequence (Q9GZU7 whole entry): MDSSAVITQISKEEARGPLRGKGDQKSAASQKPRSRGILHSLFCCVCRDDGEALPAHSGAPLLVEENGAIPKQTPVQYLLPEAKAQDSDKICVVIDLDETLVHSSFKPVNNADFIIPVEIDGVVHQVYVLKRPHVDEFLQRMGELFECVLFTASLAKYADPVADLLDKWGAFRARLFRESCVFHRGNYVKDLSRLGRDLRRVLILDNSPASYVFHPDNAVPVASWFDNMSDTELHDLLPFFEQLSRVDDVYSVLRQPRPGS

[3] = biological target: DNA (cytosine-5)-methyltransferase 1 (Homo sapiens, UniProt P26358); assay: inhibition of DNA methylation by DNMT1 – biochemical, fluorescent molecular beacon, confirmation (AID 602386); type: functional
Chain of DNA (cytosine-5)-methyltransferase 1 (P26358 whole entry): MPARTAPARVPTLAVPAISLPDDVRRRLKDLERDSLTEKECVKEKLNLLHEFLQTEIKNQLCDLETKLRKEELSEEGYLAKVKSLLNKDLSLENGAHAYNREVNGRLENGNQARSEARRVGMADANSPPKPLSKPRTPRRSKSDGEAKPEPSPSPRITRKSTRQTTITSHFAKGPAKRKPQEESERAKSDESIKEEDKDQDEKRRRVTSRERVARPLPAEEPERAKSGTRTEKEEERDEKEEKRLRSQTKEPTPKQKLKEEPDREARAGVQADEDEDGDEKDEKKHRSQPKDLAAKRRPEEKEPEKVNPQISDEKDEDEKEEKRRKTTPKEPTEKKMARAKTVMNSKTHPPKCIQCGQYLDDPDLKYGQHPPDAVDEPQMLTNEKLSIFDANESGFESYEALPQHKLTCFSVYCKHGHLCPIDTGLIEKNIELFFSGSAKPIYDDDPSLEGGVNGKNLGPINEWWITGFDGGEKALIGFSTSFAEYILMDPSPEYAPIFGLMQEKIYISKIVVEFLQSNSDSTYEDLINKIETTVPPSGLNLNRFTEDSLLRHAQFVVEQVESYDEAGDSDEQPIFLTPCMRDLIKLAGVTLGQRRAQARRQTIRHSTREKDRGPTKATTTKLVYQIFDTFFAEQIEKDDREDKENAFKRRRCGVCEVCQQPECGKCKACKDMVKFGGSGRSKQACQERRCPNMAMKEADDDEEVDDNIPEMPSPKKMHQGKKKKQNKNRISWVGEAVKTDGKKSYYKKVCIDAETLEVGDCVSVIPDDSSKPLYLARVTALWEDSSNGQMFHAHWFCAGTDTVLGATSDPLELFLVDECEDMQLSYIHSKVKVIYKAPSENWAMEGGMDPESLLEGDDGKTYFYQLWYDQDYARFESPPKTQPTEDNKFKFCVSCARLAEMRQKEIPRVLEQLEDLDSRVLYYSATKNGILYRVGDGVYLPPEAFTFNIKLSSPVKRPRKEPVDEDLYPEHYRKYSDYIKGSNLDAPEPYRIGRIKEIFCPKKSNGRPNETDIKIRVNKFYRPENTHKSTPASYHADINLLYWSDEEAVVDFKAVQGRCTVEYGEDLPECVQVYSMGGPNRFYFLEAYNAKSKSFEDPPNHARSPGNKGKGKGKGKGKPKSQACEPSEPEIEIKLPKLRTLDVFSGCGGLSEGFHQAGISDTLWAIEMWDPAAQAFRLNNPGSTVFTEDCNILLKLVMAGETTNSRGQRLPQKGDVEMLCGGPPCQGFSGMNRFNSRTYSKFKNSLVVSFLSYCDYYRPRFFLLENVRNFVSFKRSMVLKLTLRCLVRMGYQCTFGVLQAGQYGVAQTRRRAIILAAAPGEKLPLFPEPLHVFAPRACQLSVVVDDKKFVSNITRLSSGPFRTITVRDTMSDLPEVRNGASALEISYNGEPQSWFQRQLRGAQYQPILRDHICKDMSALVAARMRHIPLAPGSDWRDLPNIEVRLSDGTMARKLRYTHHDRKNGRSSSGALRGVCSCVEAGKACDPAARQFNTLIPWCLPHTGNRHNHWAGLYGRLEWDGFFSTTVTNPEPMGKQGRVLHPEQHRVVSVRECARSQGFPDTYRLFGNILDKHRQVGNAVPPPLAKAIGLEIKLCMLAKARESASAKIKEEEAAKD

Coagulation factor XII = biological target: T2, Coagulation factor XII (Homo sapiens, UniProt P00748); type: functional;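 note: activated factor XIIa alpha cleaving a fluorogenic AMC peptide substrate; inhibitor potency from loss of enzyme activity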
T2 sequence (P00748 whole entry): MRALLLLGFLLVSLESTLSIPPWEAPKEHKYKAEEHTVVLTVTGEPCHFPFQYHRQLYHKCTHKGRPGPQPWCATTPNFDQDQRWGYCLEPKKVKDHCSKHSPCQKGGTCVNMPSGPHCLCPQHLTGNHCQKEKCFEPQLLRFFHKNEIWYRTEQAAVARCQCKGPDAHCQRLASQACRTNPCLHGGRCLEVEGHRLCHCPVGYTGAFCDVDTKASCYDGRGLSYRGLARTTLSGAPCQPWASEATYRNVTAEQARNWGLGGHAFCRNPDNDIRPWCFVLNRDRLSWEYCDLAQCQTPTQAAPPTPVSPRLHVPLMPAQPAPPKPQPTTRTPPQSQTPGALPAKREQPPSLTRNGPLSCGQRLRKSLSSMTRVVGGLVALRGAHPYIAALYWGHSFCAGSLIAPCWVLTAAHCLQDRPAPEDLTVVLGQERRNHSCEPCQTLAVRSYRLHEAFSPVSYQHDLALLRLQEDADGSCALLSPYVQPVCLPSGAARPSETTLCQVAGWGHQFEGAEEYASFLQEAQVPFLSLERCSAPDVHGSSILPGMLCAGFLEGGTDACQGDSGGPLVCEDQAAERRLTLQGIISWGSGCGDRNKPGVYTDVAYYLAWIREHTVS

[4] = biological target: Ras and Rab interactor 1/Tyrosine-protein kinase ABL1 (Homo sapiens, UniProt P00519+Q13671); type: functional;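 note: biochemical TR-FRET dose-response test measuring inhibition of binding between Rin1 and Abl proteins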
Chain of Ras and Rab interactor 1/Tyrosine-protein kinase ABL1 (P00519 whole entry): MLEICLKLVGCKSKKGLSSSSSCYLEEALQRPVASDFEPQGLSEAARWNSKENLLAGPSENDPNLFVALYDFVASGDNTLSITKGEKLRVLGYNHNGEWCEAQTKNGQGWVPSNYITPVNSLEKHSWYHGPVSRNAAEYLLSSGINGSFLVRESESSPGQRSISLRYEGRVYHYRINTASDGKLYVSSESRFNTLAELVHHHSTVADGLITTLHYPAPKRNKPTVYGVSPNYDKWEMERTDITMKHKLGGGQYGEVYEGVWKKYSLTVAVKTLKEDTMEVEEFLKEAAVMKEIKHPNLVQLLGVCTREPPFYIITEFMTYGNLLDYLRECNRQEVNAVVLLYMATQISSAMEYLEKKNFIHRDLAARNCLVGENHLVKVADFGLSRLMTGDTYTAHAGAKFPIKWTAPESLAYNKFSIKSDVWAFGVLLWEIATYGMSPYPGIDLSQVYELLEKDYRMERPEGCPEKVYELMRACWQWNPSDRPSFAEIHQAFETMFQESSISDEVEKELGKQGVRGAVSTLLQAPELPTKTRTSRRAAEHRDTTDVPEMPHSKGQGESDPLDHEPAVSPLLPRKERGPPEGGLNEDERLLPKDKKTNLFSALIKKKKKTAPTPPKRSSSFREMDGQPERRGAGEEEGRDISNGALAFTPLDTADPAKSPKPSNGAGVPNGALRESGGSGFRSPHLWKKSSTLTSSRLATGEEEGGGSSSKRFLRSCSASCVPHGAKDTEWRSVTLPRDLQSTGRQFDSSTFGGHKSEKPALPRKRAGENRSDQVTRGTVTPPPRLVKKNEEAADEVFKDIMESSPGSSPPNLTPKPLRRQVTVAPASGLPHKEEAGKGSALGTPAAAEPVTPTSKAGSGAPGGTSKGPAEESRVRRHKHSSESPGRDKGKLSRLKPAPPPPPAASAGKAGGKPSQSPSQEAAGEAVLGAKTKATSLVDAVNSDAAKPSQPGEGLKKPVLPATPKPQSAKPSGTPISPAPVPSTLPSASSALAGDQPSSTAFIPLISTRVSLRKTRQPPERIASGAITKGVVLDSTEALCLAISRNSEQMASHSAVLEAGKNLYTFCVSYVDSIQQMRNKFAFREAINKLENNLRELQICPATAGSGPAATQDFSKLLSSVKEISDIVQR
Chain of Ras and Rab interactor 1/Tyrosine-protein kinase ABL1 (Q13671 whole entry): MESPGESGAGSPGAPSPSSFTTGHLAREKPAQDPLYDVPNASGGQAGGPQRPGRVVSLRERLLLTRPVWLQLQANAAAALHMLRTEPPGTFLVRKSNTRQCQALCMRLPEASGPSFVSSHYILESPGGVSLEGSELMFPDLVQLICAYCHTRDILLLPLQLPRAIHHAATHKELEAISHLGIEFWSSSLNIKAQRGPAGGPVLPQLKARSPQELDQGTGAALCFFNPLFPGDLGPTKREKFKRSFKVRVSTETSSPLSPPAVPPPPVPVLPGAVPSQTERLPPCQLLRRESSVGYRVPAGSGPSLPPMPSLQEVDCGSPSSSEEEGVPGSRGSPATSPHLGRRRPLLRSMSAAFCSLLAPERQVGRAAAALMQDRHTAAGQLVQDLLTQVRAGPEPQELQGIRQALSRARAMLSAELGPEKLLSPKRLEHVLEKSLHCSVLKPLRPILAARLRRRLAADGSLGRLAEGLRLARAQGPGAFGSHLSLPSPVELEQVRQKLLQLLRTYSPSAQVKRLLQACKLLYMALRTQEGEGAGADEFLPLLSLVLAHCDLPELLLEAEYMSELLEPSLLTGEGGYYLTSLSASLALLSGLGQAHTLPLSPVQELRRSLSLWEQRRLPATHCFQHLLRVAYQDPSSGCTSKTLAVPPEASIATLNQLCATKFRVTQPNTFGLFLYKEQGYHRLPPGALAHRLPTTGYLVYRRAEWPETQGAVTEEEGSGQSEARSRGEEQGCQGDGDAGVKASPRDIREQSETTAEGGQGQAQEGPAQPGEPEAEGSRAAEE

[5] = activation of miR-122 Renilla sensor silencing – cell-based, Huh7 psiCHECK-miR122, Renilla luciferase, cherry-picked, dose response (AID 651956); type: functional;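 note: huh7 hepatoma cells stably carrying a psiCHECK-2 miR-122 sensor plasmid; renilla luciferase signal reporting endogenous miR-122 activity after 48 h compound exposure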
[6] = biological target: T3, Long-chain-fatty-acid--AMP ligase FadD28 (Mycobacterium tuberculosis, UniProt P9WQ59); assay: Fluorescence polarization aasay to screen for inhibitors that compete for the binding of FadD28 to a bisubstrate Measured in Biochemical System Using Plate Reader - 2147-01_Inhibitor_Dose_CherryPick_Activity.; type: functional, Mycobacterium tuberculosis H37Rv
T3 sequence (P9WQ59 whole entry): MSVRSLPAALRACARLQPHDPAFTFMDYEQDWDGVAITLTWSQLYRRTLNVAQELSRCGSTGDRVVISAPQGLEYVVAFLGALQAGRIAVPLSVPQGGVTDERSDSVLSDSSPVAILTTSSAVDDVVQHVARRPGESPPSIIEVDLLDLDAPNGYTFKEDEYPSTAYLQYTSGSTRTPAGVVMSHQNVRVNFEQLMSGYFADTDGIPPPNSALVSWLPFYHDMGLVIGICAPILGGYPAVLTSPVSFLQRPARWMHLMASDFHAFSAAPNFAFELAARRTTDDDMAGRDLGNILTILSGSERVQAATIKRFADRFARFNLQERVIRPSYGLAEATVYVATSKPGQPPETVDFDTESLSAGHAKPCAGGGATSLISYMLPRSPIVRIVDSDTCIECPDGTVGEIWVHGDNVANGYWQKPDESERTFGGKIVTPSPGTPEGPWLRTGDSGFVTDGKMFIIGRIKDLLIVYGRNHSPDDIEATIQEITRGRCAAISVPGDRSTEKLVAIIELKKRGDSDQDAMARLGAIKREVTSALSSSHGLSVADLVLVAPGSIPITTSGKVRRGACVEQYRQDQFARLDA

HeLa = assay: ATP-based viability loss in HeLa cells – cell-based, CellTiter-Glo luminescence, cherry-pick samples, cytotoxicity control for MITF activator project, dose response (AID 540259); type: functional; details: Homo sapiens
Protein skinhead-1 = biological target: T4, Protein skinhead-1 (Caenorhabditis elegans, UniProt P34707); type: functional
T4 sequence (P34707 whole entry): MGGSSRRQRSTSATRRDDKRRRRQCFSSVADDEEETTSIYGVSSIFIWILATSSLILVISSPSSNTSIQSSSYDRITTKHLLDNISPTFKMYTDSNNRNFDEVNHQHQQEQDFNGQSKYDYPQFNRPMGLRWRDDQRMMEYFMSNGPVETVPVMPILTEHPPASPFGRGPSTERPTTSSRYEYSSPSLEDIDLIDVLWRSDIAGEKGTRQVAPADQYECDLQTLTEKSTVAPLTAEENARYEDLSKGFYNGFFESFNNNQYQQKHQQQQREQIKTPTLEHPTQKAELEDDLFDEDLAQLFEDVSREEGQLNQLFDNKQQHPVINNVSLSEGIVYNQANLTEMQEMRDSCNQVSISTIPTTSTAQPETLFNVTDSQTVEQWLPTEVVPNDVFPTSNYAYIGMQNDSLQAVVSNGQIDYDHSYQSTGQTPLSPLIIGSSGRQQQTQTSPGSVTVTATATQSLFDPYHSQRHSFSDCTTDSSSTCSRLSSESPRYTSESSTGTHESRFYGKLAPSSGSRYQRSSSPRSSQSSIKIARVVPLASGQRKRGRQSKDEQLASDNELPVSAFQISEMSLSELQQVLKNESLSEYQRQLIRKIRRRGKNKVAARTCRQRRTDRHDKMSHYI

Cytochrome P450 2C19 = Cytochrome P450 2C19 (Homo sapiens, UniProt P33261); assay: Cytochrome panel assay with activity outcomes. Panel member name: p450-cyp2c19 Compounds with AC50 equal or less than 10 uM are considered active; type: functional; details: read-out: AC50
Chain of Cytochrome P450 2C19 (P33261 whole entry): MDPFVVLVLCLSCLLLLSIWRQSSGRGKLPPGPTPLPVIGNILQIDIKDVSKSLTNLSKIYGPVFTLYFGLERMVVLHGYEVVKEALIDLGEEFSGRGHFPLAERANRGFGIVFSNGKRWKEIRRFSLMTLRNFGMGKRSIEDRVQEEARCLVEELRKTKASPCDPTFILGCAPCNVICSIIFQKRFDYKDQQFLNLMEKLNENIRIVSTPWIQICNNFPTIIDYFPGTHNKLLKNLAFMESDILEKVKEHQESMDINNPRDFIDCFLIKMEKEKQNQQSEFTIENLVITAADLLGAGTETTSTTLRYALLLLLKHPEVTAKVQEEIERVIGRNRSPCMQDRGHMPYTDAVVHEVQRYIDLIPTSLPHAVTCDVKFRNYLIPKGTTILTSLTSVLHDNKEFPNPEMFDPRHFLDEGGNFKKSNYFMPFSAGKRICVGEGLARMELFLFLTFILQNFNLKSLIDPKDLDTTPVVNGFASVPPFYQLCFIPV

Cytochrome P450 1A2 = biological target: T5, Cytochrome P450 1A2 (Homo sapiens, UniProt P05177);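 note: PubChem cytochrome P450 panel assay, CYP1A2 panel member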
T5 sequence (P05177 whole entry): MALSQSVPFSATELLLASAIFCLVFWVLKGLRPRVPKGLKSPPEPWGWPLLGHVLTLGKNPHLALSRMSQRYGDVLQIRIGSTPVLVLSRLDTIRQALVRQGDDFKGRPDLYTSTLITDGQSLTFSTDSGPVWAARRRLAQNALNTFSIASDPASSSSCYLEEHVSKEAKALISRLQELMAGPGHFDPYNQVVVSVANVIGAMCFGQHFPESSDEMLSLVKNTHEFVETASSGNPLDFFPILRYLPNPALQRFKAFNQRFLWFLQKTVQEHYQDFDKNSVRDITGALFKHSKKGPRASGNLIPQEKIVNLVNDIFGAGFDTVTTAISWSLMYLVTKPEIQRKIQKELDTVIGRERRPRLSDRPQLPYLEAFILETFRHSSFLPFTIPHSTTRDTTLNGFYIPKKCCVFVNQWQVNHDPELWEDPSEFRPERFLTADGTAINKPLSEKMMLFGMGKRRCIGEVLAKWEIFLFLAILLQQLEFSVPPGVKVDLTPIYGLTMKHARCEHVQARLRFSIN

Cytochrome P450 2C9 = Cytochrome P450 2C9 (Homo sapiens, UniProt P11712)
Chain of Cytochrome P450 2C9 (P11712 whole entry): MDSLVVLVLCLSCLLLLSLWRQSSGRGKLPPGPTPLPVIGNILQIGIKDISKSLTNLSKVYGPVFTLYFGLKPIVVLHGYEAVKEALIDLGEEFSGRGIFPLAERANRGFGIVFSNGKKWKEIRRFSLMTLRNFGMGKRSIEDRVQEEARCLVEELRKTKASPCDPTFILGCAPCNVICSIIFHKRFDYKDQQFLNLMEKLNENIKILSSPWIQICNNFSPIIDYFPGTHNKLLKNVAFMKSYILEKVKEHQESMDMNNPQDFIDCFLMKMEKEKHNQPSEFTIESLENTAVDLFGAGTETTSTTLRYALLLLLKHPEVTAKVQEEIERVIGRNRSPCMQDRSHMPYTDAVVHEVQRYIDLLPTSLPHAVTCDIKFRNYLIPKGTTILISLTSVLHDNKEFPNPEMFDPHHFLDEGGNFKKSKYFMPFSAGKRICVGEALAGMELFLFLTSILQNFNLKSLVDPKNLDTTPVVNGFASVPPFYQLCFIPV

[7] = biological target: Heat shock protein HSP 90-alpha (Homo sapiens, UniProt P07900); type: functional, organism-based
[8] = biological target: T6, Endoribonuclease toxin MazF (Escherichia coli K-12, UniProt P0AE70); assay: activation of MazEF endoribonuclease cleavage – biochemical, fluorescence, single-stranded RNA substrate, uHTS hits, dose response (AID 588481); type: functional
T6 sequence (P0AE70 whole entry): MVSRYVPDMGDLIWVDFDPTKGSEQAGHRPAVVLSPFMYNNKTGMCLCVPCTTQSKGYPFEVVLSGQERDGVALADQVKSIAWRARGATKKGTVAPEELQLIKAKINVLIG

[9] = biological target: T6, Endoribonuclease toxin MazF; assay: substrate-only fluorescence increase artefacts – biochemical, single-stranded RNase substrate, counter-screen for MazEF activator project, dose response (AID 588502); type: functional

## COc1ccc(S(=O)(=O)N2CCN(C(=O)c3cc4c(s3)CCC4)CC2)cc1
[1]
  CC50: > 40 µM (active)
[2]
  IC50: 1.61 µM (active)
[3]
  IC50: 11.3 µM (active)

## COCCN(C(=O)C1CC1)c1nnc(-c2ccc(C)cc2)s1
Coagulation factor XII
  IC50: > 50 µM (inactive)

## COC(=O)c1cccc(NC(=O)c2ccc[n+]([O-])c2)c1
[4]
  IC50: 18 µM (inactive)

## COc1cccc(-c2csc(N3CCN(CC(=O)Nc4ccc5c(c4)OCO5)CC3)n2)c1
[5]
  AC50: 17.2 µM (active)

## CN(C)c1ccc(C(=S)N2CCN(c3ccc([N+](=O)[O-])cc3)CC2)cc1
Coagulation factor XII
  IC50: > 50 µM (inactive)

## O=C(O)c1[nH]c2ccccc2c1C(c1c(F)cccc1Cl)c1c(C(=O)O)[nH]c2ccccc12
[6]
  AC50: 69.9 µM (active)

## COc1ccc(NC(=O)CN(C)C(=O)CNC(=O)c2sc3ccccc3c2Cl)cc1
HeLa
  AC50: 41.6 µM (active)

## c1ccc(CCNc2nnnn2-c2ccccc2)cc1
Protein skinhead-1
  IC50: > 100 µM (inactive)
[5]
  AC50: 9.58 µM (active)
Cytochrome P450 2C19
  AC50: 1.78 µM (inconclusive)
Cytochrome P450 1A2
  AC50: 2.51 µM (inconclusive)
Cytochrome P450 2C9
  AC50: 11.2 µM (inconclusive)

## CCOC(=O)c1cc2cc(OCc3ccccc3)ccc2nc1C
[7]
  AC50: 3.93 µM (active)

## N#C/C(=C\C1=C(N2CCOCC2)C(=C/c2cccc([N+](=O)[O-])c2)/CC1)C(=O)Nc1ccccc1F
[8]
  EC50: > 99 µM (inactive)
[9]
  EC50: > 99 µM (inactive)

## CSc1ccc(-c2nnn(Cc3ccc(C)cc3)n2)cc1
HeLa
  AC50: 98 µM (active)
